According to US20060216253A1, “Whitening cosmetics containing morus alba extracts” (Time and Cross, Inc., priority 2005, published 2006):

Assays:
[1] = tested on: murine melanoma B16 cells; test: Melanin production in murine melanoma B-16 cells; type: cell-based; conditions: for Melanin production (%): B16 cells, 3 days; for inhibitory effects on melanin production (in words): any of the concentrations assayed
Protocol: (§1) The melanoma cell line was grown in DMEM culture medium containing 4.5 g of glucose/l, 10% fetal bovine serum and 1% antibiotic agent and cultivated at 37° C. under a condition of 5% CO2. The cell suspension was inoculated in a 50 mL T-flask (3×10^5 cells/mL) and the cells were allowed to completely adhere to the plate for 24 hr. Then, test samples diluted in DMEM medium at concentrations of 1, 5, 10, 50, and 100 μg/mL were added to the cultivated cells, and the mixture was cultivated at 5% CO2 and 37° C. for 3 days. After cultivation, culture medium was thoroughly removed and the cells were isolated via trypsin treatment. The suspensions were then centrifuged for 5 min to collect cells. The obtained cells were treated with 5% trichloroacetic acid (TCA), stirred and centrifuged. The precipitated melanin was washed with phosphate buffered saline (PBS), and treated with 1 N NaOH to dissolve the melanin therein. Absorbance at 475 nm was measured. Melanin concentration was determined from a standard concentration curve of synthetic melanin (SIGMA Co., USA).

Mushroom Tyrosinase [2] = test: Extended duration of mushroom tyrosinase inhibition (up to 24 hours); type: biochemical; conditions: for reaction time until loss of tyrosinase inhibitory activity: 37° C., FIG. 3
Protocol: (§2) L-Tyrosine, the substrate for tyrosinase, was dissolved in 50 mM sodium phosphate buffer (pH6.8) to prepare a solution of 0.1 mg/mL L-tyrosine. […] 100 μL of the L-tyrosine solution was introduced into a test tube, and 100 μL of 50 mM sodium phosphate buffer (pH6.8) with or without test samples were added thereto, and then 10 μL of 200 U/mL tyrosinase were mixed and incubated at 37° C. for 15 min.
Using the experimental conditions described in the Mushroom Tyrosinase experiment described above, the reaction mixtures, containing various concentrations from 1 μg/mL to 50 μg/mL of the agents assayed, were incubated at 37° C. and spectrophotometric measurements of dopachrome were made at time intervals of up to 24 hours.

melan-a cell line [3] = test: Cell viability (MTT assay) of melan-a cell line; type: cell-based
Protocol: (§3) Melan-a cells were grown in 10 mL of RPMI 1640 medium supplemented with antibiotics, 10% fetal bovine serum (FBS), and 20 nM TPA. The cell suspension was inoculated in a 24-well plate (10^5 cells/mL) and the cells were allowed to completely adhere to the plate for 24 hr. Test samples dissolved in DMSO were added to the plate and incubated at 37° C. for 72 hr in a CO2 incubator. The culture medium was then thoroughly removed and the cells were isolated through trypsin treatment. The suspensions were then centrifuged for 5 min to collect cells, which were then treated with 5% trichloroacetic acid (TCA), stirred and centrifuged to precipitate the melanin. Melanin was washed with PBS and dissolved in 1 N NaOH. Absorbance at 475 nm was measured. Melanin concentration was determined from a standard concentration curve of synthetic melanin (SIGMA Co., USA).
(§4) We used the MTT assay to determine the percentage of viable cells. After cultivation was completed, a solution of MTT was added to the cultivation solution and the mixture was incubated at 37° C. for 4 hr. After incubation, culture medium was thoroughly removed, and the residue was treated with DMSO (Dimethyl sulfoxide) and shaken for 20 min. The optical density at 580 nm was measured by an ELISA microplate reader.

melan-a cell line [4] = test: Melanin production in melan-a cell line; type: cell-based; conditions: melan-a cells; for Melanin production (%): 72 hr; for inhibitory effects on melanin production (in words): any of the concentrations assayed
Protocol: as §3

[5] = tested on: murine melanoma B16 cells; test: Cell viability (MTT assay) of murine melanoma B-16 cells; type: cell-based
Protocol: as §1, §4

Mushroom Tyrosinase [6] = test: Inhibitory effects on mushroom tyrosinase (dopachrome, OD490, 15 min); type: biochemical; conditions: for IC50: 37° C., 15 min, L-tyrosine substrate
Protocol: as §2
The amount of dopachrome in the reaction mixture was determined spectrophotmetrically using absorbance measurement at 490 nm.

melanocytes = test: Microscopic observation of pigmentation of confluent melanocyte monolayer; type: cell-based; conditions: cell line not specified
Text: The pigmentation of a confluent monolayer of melanocytes is visible microscopically, as the cells contain black melanin pigment.

O=c1cc(CO)occ1O [Kojic acid, kojic acid]
Melanin production (%) ([1]; 1 μg/mL): 102.4 ± 4.7% | Melanin production (%) ([1]; 5 μg/mL): 98.2 ± 7.1% | Melanin production (%) ([1]; 10 μg/mL): 96.5 ± 3.7% | Melanin production (%) ([1]; 50 μg/mL): 94.1 ± 5.2% | Melanin production (%) ([1]; 100 μg/mL): 91.6 ± 7.1% | inhibitory effects on melanin production (in words) ([1]; melanoma B-16 cells): did not show inhibitory effects on melanin production | reaction time until loss of tyrosinase inhibitory activity (Mushroom Tyrosinase [2]; 2 μg/mL): loses activity within two hours | reaction time until loss of tyrosinase inhibitory activity (Mushroom Tyrosinase [2]; 5 μg/mL): within five hours | Cell viability (%) (melan-a cell line [3]; melan-a cells, 1 μg/mL, MTT): 95.3 ± 8.0% | Cell viability (%) (melan-a cell line [3]; melan-a cells, 5 μg/mL, MTT): 96.8 ± 4.7% | Cell viability (%) (melan-a cell line [3]; melan-a cells, 10 μg/mL, MTT): 95.1 ± 9.0% | Cell viability (%) (melan-a cell line [3]; melan-a cells, 50 μg/mL, MTT): 84.2 ± 8.2% | Cell viability (%) (melan-a cell line [3]; melan-a cells, 100 μg/mL, MTT): 80.5 ± 8.3% | Melanin production (%) (melan-a cell line [4]; 1 μg/mL): 103.4 ± 5.4% | Melanin production (%) (melan-a cell line [4]; 5 μg/mL): 100.5 ± 8.2% | Melanin production (%) (melan-a cell line [4]; 10 μg/mL): 99.4 ± 7.1% | Melanin production (%) (melan-a cell line [4]; 50 μg/mL): 95.1 ± 6.7% | Melanin production (%) (melan-a cell line [4]; 100 μg/mL): 92.4 ± 8.0% | inhibitory effects on melanin production (in words) (melan-a cell line [4]): did not show inhibitory effects on melanin production | Cell viability (%) ([5]; B16 cells, 1 μg/mL, MTT): 95.2 ± 8.3% | Cell viability (%) ([5]; B16 cells, 5 μg/mL, MTT): 97.2 ± 7.6% | Cell viability (%) ([5]; B16 cells, 10 μg/mL, MTT): 96.2 ± 5.0% | Cell viability (%) ([5]; B16 cells, 50 μg/mL, MTT): 86.7 ± 3.4% | Cell viability (%) ([5]; B16 cells, 100 μg/mL, MTT): 81.7 ± 8.5%

Oc1cc(O)cc(/C=C/c2ccc(O)cc2O)c1 [Oxyresveratrol, oxyresveratrol]
Melanin production (%) ([1]; 1 μg/mL): 94.3 ± 7.7% | Melanin production (%) ([1]; 5 μg/mL): 90.8 ± 4.4% | Melanin production (%) ([1]; 10 μg/mL): 87.5 ± 6.9% | Melanin production (%) ([1]; 50 μg/mL): 57.3 ± 8.1% | Melanin production (%) ([1]; 100 μg/mL): 19.5 ± 8.2% | reduction in melanin production ([1]; melanoma B-16 cells, 100 μg/mL): 80.5% | inhibition of tyrosinase activity after 24 hours (Mushroom Tyrosinase [2]; 24 hours incubation, even at the lower concentrations tested, FIG. 4): about 90% | IC50 (Mushroom Tyrosinase [2]; read-out: IC50 for tyrosinase inhibition after 24 hours incubation, 24 hours incubation): 2600 nM | Cell viability (%) (melan-a cell line [3]; mouse, 72 h, 1 μg/mL): 99.0 ± 5.8% | Cell viability (%) (melan-a cell line [3]; mouse, 72 h, 5 μg/mL): 96.9 ± 7.9% | Cell viability (%) (melan-a cell line [3]; mouse, 72 h, 10 μg/mL): 94.7 ± 4.2% | Cell viability (%) (melan-a cell line [3]; mouse, 72 h, 50 μg/mL): 68.5 ± 5.5% | Cell viability (%) (melan-a cell line [3]; mouse, 72 h, 100 μg/mL): 27.3 ± 7.8% | IC50 (Mushroom Tyrosinase [6]): 2400 nM | inhibitory effect on mushroom tyrosinase (in words) (Mushroom Tyrosinase [6]; FIGS. 1 and 2): the most potent inhibitors of mushroom tyrosinase | Melanin production (%) (melan-a cell line [4]; 1 μg/mL): 95.1 ± 3.1% | Melanin production (%) (melan-a cell line [4]; 5 μg/mL): 90.2 ± 6.4% | Melanin production (%) (melan-a cell line [4]; 10 μg/mL): 88.5 ± 7.4% | Melanin production (%) (melan-a cell line [4]; 50 μg/mL): 60.3 ± 9.1% | reduction in melanin production (melan-a cell line [4]; 100 μg/mL): 79.4% | Melanin production (%) (melan-a cell line [4]; 100 μg/mL): 20.6 ± 4.9% | pigmentation of treated cells observed microscopically (melanocytes): Reduced pigmentation | Cell viability (%) ([5]; mouse, 3 days, 1 μg/mL): 99.5 ± 5.4% | Cell viability (%) ([5]; mouse, 3 days, 5 μg/mL): 97.4 ± 5.9% | Cell viability (%) ([5]; mouse, 3 days, 10 μg/mL): 95.3 ± 7.6% | Cell viability (%) ([5]; mouse, 3 days, 50 μg/mL): 66.2 ± 8.3% | Cell viability (%) ([5]; mouse, 3 days, 100 μg/mL): 23.1 ± 4.8%

OC[C@H]1O[C@@H](Oc2ccc(O)cc2)[C@H](O)[C@@H](O)[C@@H]1O [Arbutin, arbutin]
Melanin production (%) ([1]; 1 μg/mL): 99.4 ± 2.1% | Melanin production (%) ([1]; 5 μg/mL): 100.8 ± 4.5% | Melanin production (%) ([1]; 10 μg/mL): 103.2 ± 1.9% | Melanin production (%) ([1]; 50 μg/mL): 98.9 ± 8.2% | Melanin production (%) ([1]; 100 μg/mL): 98.2 ± 6.9% | inhibitory effects on melanin production (in words) ([1]; melanoma B-16 cells): did not show inhibitory effects on melanin production | reaction time until loss of tyrosinase inhibitory activity (Mushroom Tyrosinase [2]; 2 μg/mL): loses activity in about one hour | reaction time until loss of tyrosinase inhibitory activity (Mushroom Tyrosinase [2]; 5 μg/mL): loses activity in about one hour | Cell viability (%) (melan-a cell line [3]; melan-a cells, 1 μg/mL, MTT): 104.2 ± 7.2% | Cell viability (%) (melan-a cell line [3]; melan-a cells, 5 μg/mL, MTT): 105.2 ± 8.3% | Cell viability (%) (melan-a cell line [3]; melan-a cells, 10 μg/mL, MTT): 100.7 ± 5.0% | Cell viability (%) (melan-a cell line [3]; melan-a cells, 50 μg/mL, MTT): 98.3 ± 7.7% | Cell viability (%) (melan-a cell line [3]; melan-a cells, 100 μg/mL, MTT): 93.8 ± 5.6% | IC50 (Mushroom Tyrosinase [6]): 145000 nM | Melanin production (%) (melan-a cell line [4]; 1 μg/mL): 104.2 ± 3.2% | Melanin production (%) (melan-a cell line [4]; 5 μg/mL): 103.7 ± 4.6% | Melanin production (%) (melan-a cell line [4]; 10 μg/mL): 102.0 ± 5.7% | Melanin production (%) (melan-a cell line [4]; 50 μg/mL): 100.4 ± 4.0% | Melanin production (%) (melan-a cell line [4]; 100 μg/mL): 99.5 ± 7.2% | inhibitory effects on melanin production (in words) (melan-a cell line [4]): did not show inhibitory effects on melanin production | Cell viability (%) ([5]; B16 cells, 1 μg/mL, MTT): 102.4 ± 5.3% | Cell viability (%) ([5]; B16 cells, 5 μg/mL, MTT): 100.1 ± 7.8% | Cell viability (%) ([5]; B16 cells, 10 μg/mL, MTT): 98.5 ± 6.3% | Cell viability (%) ([5]; B16 cells, 50 μg/mL, MTT): 96.6 ± 8.0% | Cell viability (%) ([5]; B16 cells, 100 μg/mL, MTT): 93.2 ± 5.6%
